# Reference: patent US20150105252A1, “SUBSTITUTED PYRAZOLES AS HERBICIDES” (E I DU PONT DE NEMOURS AND COMPANY, priority 2013, published 2015)
# Experiments:
# field poppy = assay: Test D preemergence; type: in vivo, Papaver rhoeas; conditions: scale 0 to 100
# Text: (§1) Seeds of plant species selected from bluegrass (annual bluegrass, Poa annua), blackgrass (Alopecurus myosuroides), canarygrass (littleseed canarygrass, Phalaris minor), chickweed (common chickweed, Stellaria media), galium (catchweed bedstraw, Galium aparine), bromegrass, downy (downy bromegrass, Bromus tectorum), field poppy (Papaver rhoeas), field violet (Viola arvensis), foxtail, green (green foxtail, Setaria viridis), deadnettle (henbit deadnettle, Lamium amplexicaule), ryegrass, Italian (Italian ryegrass, Lolium multiflorum), kochia (Kochia scoparia), lambsquarters (Chenopodium album), oilseed rape (Brassica napus), pigweed (redroot pigweed, Amaranthus retroflexus), chamomile (scentless chamomile, Matricaria inodora), speedwell (bird's-eye speedwell, Veronica persica), barley, spring (spring barley, Hordeum vulgare), wheat, spring (spring wheat, Triticum aestivum), buckwheat, wild (wild buckwheat, Polygonum convolvulus), mustard, wild (wild mustard, Sinapis arvensis), oat, wild (wild oat, Avena fatua), radish, wild (wild radish, Raphanus raphanistrum), windgrass (Apera spica-venti), Russian thistle (Salsola kali), barley, winter (winter barley, Hordeum vulgare), and wheat, winter (winter wheat, Triticum aestivum) were planted into a silt loam soil and treated preemergence with test chemicals formulated in a non-phytotoxic solvent mixture which included a surfactant.
# (§2) At the same time, these species were planted in pots containing Redi-Earth® planting medium (Scotts Company, 14111 Scottslawn Road, Marysville, Ohio 43041) comprising spaghnum peat moss, vermiculite, wetting agent and starter nutrients and treated with postemergence applications of the test chemicals formulated in the same manner. Plants ranged in height from 2 to 18 cm (1- to 4-leaf stage). Treated plants and controls were maintained in a controlled growth environment for 14 to 21 days after which time all species were compared to controls and visually evaluated. Plant response ratings, summarized in Table D, are based on a scale of 0 to 100 where 0 is no effect and 100 is complete control. A dash (-) response means no test result.
# field violet = assay: Test D preemergence; type: in vivo, Viola arvensis; conditions: scale 0 to 100
# Text: as §1, §2
# foxtail, green = assay: Test D preemergence; type: in vivo, Setaria viridis; conditions: scale 0 to 100
# Text: as §1, §2
# oilseed rape = assay: Test D preemergence; type: in vivo, Brassica napus; conditions: scale 0 to 100
# Text: as §1, §2
# radish, wild = assay: Test D preemergence; type: in vivo, Raphanus raphanistrum; conditions: scale 0 to 100
# Outline: (§3)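 Postemergence activity was tested on plants at the 1- to 4-leaf stage (2–18 cm) grown in peat-based medium, and preemergence activity on seeds in silt loam, with chemicals in a surfactant-containing non-phytotoxic solvent. Controlled-environment growth lasted 14–21 days before visual 0–100 scoring.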
# blackgrass = assay: Test D postemergence; type: in vivo, Alopecurus myosuroides; conditions: scale 0 to 100
# Text: as §1, §2
# ryegrass, Italian = assay: Test D postemergence; type: in vivo, Lolium multiflorum; conditions: scale 0 to 100
# Text: as §1, §2
# lambsquarters = assay: Test D postemergence; type: in vivo, Chenopodium album; conditions: scale 0 to 100
# Outline: as §3
# chamomile = assay: Test D postemergence; type: in vivo, Matricaria inodora; conditions: scale 0 to 100
# Text: as §1, §2
# windgrass = assay: Test D postemergence; type: in vivo, Apera spica-venti; conditions: scale 0 to 100
# Text: as §1, §2
# velvetleaf = assay: Test F preemergence; type: in vivo, Abutilon theophrasti
# Outline: (§4)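 Planting in silt loam, then preemergence treatment; postemergence treatment in parallel on 1- to 4-leaf seedlings (2–18 cm). Compound carried in a non-phytotoxic solvent mixture with surfactant. Greenhouse, 14–21 days; visual comparison with controls, scored 0 (none) to 100 (full control).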
# morningglory = assay: Test F preemergence; type: in vivo, Ipomoea coccinea
# Outline: as §4
# nightshade = assay: Test F preemergence; type: in vivo, Solanum ptycanthum
# Outline: as §4
# yellow nutsedge = assay: Test F preemergence; type: in vivo, Cyperus esculentus
# Text: Seeds of plant species selected from corn (Zea mays), soybean (Glycine max), velvetleaf (Abutilon theophrasti), lambsquarters (Chenopodium album), wild poinsettia (Euphorbia heterophylla), pigweed, palmer (palmer pigweed, Amaranthus palmeri), common waterhemp (Amaranthus rudis), surinam grass (Brachiaria decumbens), large crabgrass (Digitaria sanguinalis), crabgrass, Brazil (Brazilian crabgrass, Digitaria horizontalis), fall panicum (Panicum dichotomiflorum), giant foxtail (Setaria faberii), green foxtail (Setaria viridis), goosegrass (Eleusine indica), johnsongrass (Sorghum halepense), common ragweed (Ambrosia elation), barnyardgrass (Echinochloa crus-galli), southern sandbur (Cenchrus echinatus), arrowleaf sida (Sida rhombifolia), Italian ryegrass (Lolium multiflorum), dayflower, VA (Virginia (VA) dayflower, Commelina virginica), field bindweed (Convolvulus arvensis), cocklebur (common cocklebur, Xanthium strumarium), morningglory (Ipomoea coccinea), nightshade (eastern black nightshade, Solanum ptycanthum), kochia (Kochia scoparia), yellow nutsedge (Cyperus esculentus), and hairy beggarticks (Bidens pilosa), were planted into a silt loam soil and treated preemergence with test chemicals formulated in a non-phytotoxic solvent mixture which included a surfactant.
# At the same time, plants from these crop and weed species and also horseweed (Canada horseweed, Conyza canadensis), smartweed (ladysthumb smartweed, Polygonum persicaria), waterhemp_RES1, (ALS & Triazine resistant common waterhemp, Amaranthus rudis), and waterhemp_RES2, (ALS & HPPD resistant common waterhemp, Amaranthus rudis) were treated with postemergence applications of test chemicals formulated in the same manner. Plants ranged in height from 2 to 18 cm for postemergence treatments (1- to 4-leaf stage). Treated plants and controls were maintained in a greenhouse for 14 to 21 days, after which time all species were compared to controls and visually evaluated. Plant response ratings, summarized in Table F, are based on a scale of 0 to 100 where 0 is no effect and 100 is complete control. A dash (-) response means no test result.
# [1] = Preemergence, 31 g ai/ha, scale 0 to 100
# [2] = Preemergence, 62 g ai/ha, scale 0 to 100
# [3] = Preemergence, 125 g ai/ha, scale 0 to 100
# [4] = preemergence, 8 g ai/ha, scale 0 to 100, 100 is complete control
# [5] = preemergence, 16 g ai/ha, scale 0 to 100, 100 is complete control
smiles,measurement,setting,value
"CCc1cc(C(=O)NCC(F)(F)F)nn1Cc1ccnc(C(F)(F)F)c1 [Compound 78, 5-ethyl-N-(2,2,2-trifluoroethyl)-1-[[(2-trifluoromethyl)-4-pyridinyl]methyl]-1H-pyrazole-3-carboxamide]","Plant response rating, Field Poppy",field poppy; 31 g ai/ha,100
same,"Plant response rating, Field Poppy",field poppy; 62 g ai/ha,100
same,"Plant response rating, Field Poppy",field poppy; 125 g ai/ha,100
same,"Plant response rating, Field Poppy",field poppy; 250 g ai/ha,100
same,"Plant response rating, Field Violet",field violet; 31 g ai/ha,100
same,"Plant response rating, Field Violet",field violet; 62 g ai/ha,100
same,"Plant response rating, Field Violet",field violet; 125 g ai/ha,100
same,"Plant response rating, Field Violet",field violet; 250 g ai/ha,100
same,"Plant response rating, Foxtail, Green","foxtail, green; 31 g ai/ha",50
same,"Plant response rating, Foxtail, Green","foxtail, green; 62 g ai/ha",100
same,"Plant response rating, Foxtail, Green","foxtail, green; 125 g ai/ha",100
same,"Plant response rating, Foxtail, Green","foxtail, green; 250 g ai/ha",100
same,"Plant response rating, Oilseed Rape",oilseed rape; 31 g ai/ha,35
same,"Plant response rating, Oilseed Rape",oilseed rape; 62 g ai/ha,80
same,"Plant response rating, Oilseed Rape",oilseed rape; 125 g ai/ha,100
same,"Plant response rating, Oilseed Rape",oilseed rape; 250 g ai/ha,100
same,"Plant response rating, Radish, Wild","radish, wild; 31 g ai/ha",100
same,"Plant response rating, Radish, Wild","radish, wild; 62 g ai/ha",100
same,"Plant response rating, Radish, Wild","radish, wild; 125 g ai/ha",100
same,"Plant response rating, Radish, Wild","radish, wild; 250 g ai/ha",100
same,Blackgrass plant response rating,"blackgrass; Postemergence, 31 g ai/ha",5
same,Blackgrass plant response rating,"blackgrass; Postemergence, 125 g ai/ha",30
same,Blackgrass plant response rating,"blackgrass; Postemergence, 250 g ai/ha",65
same,Blackgrass plant response rating,"blackgrass; postemergence, 62 g ai/ha",10
same,"Ryegrass, Italian plant response rating","ryegrass, Italian; Postemergence, 31 g ai/ha",5
same,"Ryegrass, Italian plant response rating","ryegrass, Italian; Postemergence, 125 g ai/ha",10
same,"Ryegrass, Italian plant response rating","ryegrass, Italian; Postemergence, 250 g ai/ha",45
same,"Ryegrass, Italian plant response rating","ryegrass, Italian; postemergence, 62 g ai/ha",5
same,Lambsquarters plant response rating,"lambsquarters; Postemergence, 31 g ai/ha",20
same,Lambsquarters plant response rating,"lambsquarters; Postemergence, 125 g ai/ha",80
same,Lambsquarters plant response rating,"lambsquarters; Postemergence, 250 g ai/ha",80
same,Lambsquarters plant response rating,"lambsquarters; postemergence, 62 g ai/ha",60
same,Chamomile plant response rating,"chamomile; Postemergence, 31 g ai/ha",30
same,Chamomile plant response rating,"chamomile; Postemergence, 125 g ai/ha",65
same,Chamomile plant response rating,"chamomile; Postemergence, 250 g ai/ha",75
same,Chamomile plant response rating,"chamomile; postemergence, 62 g ai/ha",50
same,Windgrass plant response rating,"windgrass; Postemergence, 31 g ai/ha",10
same,Windgrass plant response rating,"windgrass; Postemergence, 125 g ai/ha",35
same,Windgrass plant response rating,"windgrass; Postemergence, 250 g ai/ha",60
same,Windgrass plant response rating,"windgrass; postemergence, 62 g ai/ha",20
same,"Plant response rating, Velvetleaf",velvetleaf; [1],10
same,"Plant response rating, Velvetleaf",velvetleaf; [2],75
same,"Plant response rating, Velvetleaf",velvetleaf; [3],95
same,"Plant response rating, Velvetleaf",velvetleaf; [4],5
same,"Plant response rating, Morningglory",morningglory; [1],100
same,"Plant response rating, Morningglory",morningglory; [2],90
same,"Plant response rating, Morningglory",morningglory; [3],100
same,"Plant response rating, Morningglory",morningglory; [4],0
same,"Plant response rating, Morningglory",morningglory; [5],40
same,"Plant response rating, Nightshade",nightshade; [1],95
same,"Plant response rating, Nightshade",nightshade; [2],98
same,"Plant response rating, Nightshade",nightshade; [3],98
same,"Plant response rating, Nightshade",nightshade; [4],0
same,"Plant response rating, Nightshade",nightshade; [5],60
same,"Plant response rating, Yellow Nutsedge",yellow nutsedge; [1],20
same,"Plant response rating, Yellow Nutsedge",yellow nutsedge; [2],70
same,"Plant response rating, Yellow Nutsedge",yellow nutsedge; [3],90
same,"Plant response rating, Yellow Nutsedge",yellow nutsedge; [4],0
same,"Plant response rating, Yellow Nutsedge",yellow nutsedge; [5],0
CCCc1cc(C(=O)NCC(F)(F)F)nn1Cc1ccnc(C(F)(F)F)c1 [Compound 105],"Plant response rating, Field Poppy",field poppy; 31 g ai/ha,100
same,"Plant response rating, Field Poppy",field poppy; 62 g ai/ha,100
same,"Plant response rating, Field Poppy",field poppy; 125 g ai/ha,100
same,"Plant response rating, Field Poppy",field poppy; 250 g ai/ha,100
same,"Plant response rating, Field Violet",field violet; 31 g ai/ha,100
same,"Plant response rating, Field Violet",field violet; 62 g ai/ha,100
same,"Plant response rating, Field Violet",field violet; 125 g ai/ha,100
same,"Plant response rating, Field Violet",field violet; 250 g ai/ha,100
same,"Plant response rating, Foxtail, Green","foxtail, green; 31 g ai/ha",45
same,"Plant response rating, Foxtail, Green","foxtail, green; 62 g ai/ha",100
same,"Plant response rating, Foxtail, Green","foxtail, green; 125 g ai/ha",100
same,"Plant response rating, Foxtail, Green","foxtail, green; 250 g ai/ha",100
same,"Plant response rating, Oilseed Rape",oilseed rape; 31 g ai/ha,0
same,"Plant response rating, Oilseed Rape",oilseed rape; 62 g ai/ha,10
same,"Plant response rating, Oilseed Rape",oilseed rape; 125 g ai/ha,70
same,"Plant response rating, Oilseed Rape",oilseed rape; 250 g ai/ha,95
same,"Plant response rating, Radish, Wild","radish, wild; 31 g ai/ha",35
same,"Plant response rating, Radish, Wild","radish, wild; 62 g ai/ha",100
same,"Plant response rating, Radish, Wild","radish, wild; 125 g ai/ha",100
same,"Plant response rating, Radish, Wild","radish, wild; 250 g ai/ha",100
same,Blackgrass plant response rating,"blackgrass; Postemergence, 31 g ai/ha",10
same,Blackgrass plant response rating,"blackgrass; Postemergence, 125 g ai/ha",65
same,Blackgrass plant response rating,"blackgrass; Postemergence, 250 g ai/ha",70
same,Blackgrass plant response rating,"blackgrass; postemergence, 62 g ai/ha",15
same,"Ryegrass, Italian plant response rating","ryegrass, Italian; Postemergence, 31 g ai/ha",5
same,"Ryegrass, Italian plant response rating","ryegrass, Italian; Postemergence, 125 g ai/ha",40
same,"Ryegrass, Italian plant response rating","ryegrass, Italian; Postemergence, 250 g ai/ha",65
same,"Ryegrass, Italian plant response rating","ryegrass, Italian; postemergence, 62 g ai/ha",5
same,Lambsquarters plant response rating,"lambsquarters; Postemergence, 31 g ai/ha",40
same,Lambsquarters plant response rating,"lambsquarters; Postemergence, 125 g ai/ha",70
same,Lambsquarters plant response rating,"lambsquarters; Postemergence, 250 g ai/ha",80
same,Lambsquarters plant response rating,"lambsquarters; postemergence, 62 g ai/ha",65
same,Chamomile plant response rating,"chamomile; Postemergence, 31 g ai/ha",25
same,Chamomile plant response rating,"chamomile; Postemergence, 125 g ai/ha",65
same,Chamomile plant response rating,"chamomile; Postemergence, 250 g ai/ha",80
same,Chamomile plant response rating,"chamomile; postemergence, 62 g ai/ha",50
same,Windgrass plant response rating,"windgrass; Postemergence, 31 g ai/ha",15
same,Windgrass plant response rating,"windgrass; Postemergence, 125 g ai/ha",40
same,Windgrass plant response rating,"windgrass; Postemergence, 250 g ai/ha",70
same,Windgrass plant response rating,"windgrass; postemergence, 62 g ai/ha",25
same,"Plant response rating, Velvetleaf",velvetleaf; [1],0
same,"Plant response rating, Velvetleaf",velvetleaf; [2],20
same,"Plant response rating, Velvetleaf",velvetleaf; [3],40
same,"Plant response rating, Velvetleaf",velvetleaf; [4],0
same,"Plant response rating, Velvetleaf",velvetleaf; [5],0
same,"Plant response rating, Morningglory",morningglory; [1],25
same,"Plant response rating, Morningglory",morningglory; [2],90
same,"Plant response rating, Morningglory",morningglory; [3],95
same,"Plant response rating, Morningglory",morningglory; [4],20
same,"Plant response rating, Morningglory",morningglory; [5],25
same,"Plant response rating, Nightshade",nightshade; [1],70
same,"Plant response rating, Nightshade",nightshade; [2],100
same,"Plant response rating, Nightshade",nightshade; [3],100
same,"Plant response rating, Nightshade",nightshade; [4],0
same,"Plant response rating, Nightshade",nightshade; [5],65
same,"Plant response rating, Yellow Nutsedge",yellow nutsedge; [1],25
same,"Plant response rating, Yellow Nutsedge",yellow nutsedge; [2],25
same,"Plant response rating, Yellow Nutsedge",yellow nutsedge; [3],65
same,"Plant response rating, Yellow Nutsedge",yellow nutsedge; [4],0
same,"Plant response rating, Yellow Nutsedge",yellow nutsedge; [5],0
